Earlier results, collected in PMC6858927 (Investigational new drugs, 2019).

Test system: AML cells with TKD mutants
Settings: cited from earlier work

Structure (SMILES) | sensitivity of AML cells with TKD mutants
CNC(=O)c1cc(Oc2ccc(NC(=O)Nc3ccc(Cl)c(C(F)(F)F)c3)cc2)ccn1 [sorafenib] | highly resistant
CC(C)(C)c1cc(NC(=O)Nc2ccc(-c3cn4c(n3)sc3cc(OCCN5CCOCC5)ccc34)cc2)no1 [quizartinib] | highly resistant
